Test results taken from US9593122B2, “Substituted pyrazolylpyrazole derivative and use of same as herbicide” (KYOYU AGRI CO., LTD., priority 2013, dated 2017).

How the values were obtained:
Assay in all cases: Paddy herbicidal activity test
Format in all cases: in vivo
[1] = test system: Monochoria vaginalis; details: irrigated paddy pot, 30 days
Method: (§1) Rice paddy soil was filled into a 1/10000 are pot followed by the addition of suitable amounts of water and chemical fertilizer, kneading, seeding with Echinochloa crus-galli, Monochoria vaginalis and Scirpus juncoides and maintaining in an irrigated state at a water depth of 3 cm.
(§2) Wettable powder of Target Compound (I) shown in Table 1 prepared in compliance with the preparation examples were diluted with a suitable amount of water, rice plants in the 2.0 leaf stage were transplanted during 3.5 leaf stage of Echinochloa crus-galli, and treated by dropping in chemical in the prescribed amount per are using a pipette.
(§3) After treating for 30 days in a glass greenhouse at an average atmospheric temperature of 30° C., the herbicidal efficacy thereof was investigated.
(§4) Evaluation of herbicidal efficacy was carried out by comparing growth inhibition rate (%) with an untreated group, while evaluation of phytotoxicity was carried out by comparing growth inhibition rate (%) with the state of a complete eradication group, and were evaluated at 11 levels indicated below.

[2] = test system: Echinochloa crus-galli; details: irrigated paddy pot, treated at 3.5 leaf stage of Echinochloa crus-galli, 30 days
Method: as §1, §2, §3, §4

[3] = test system: Scirpus juncoides; details: irrigated paddy pot, 30 days
Method: as §1, §2, §3, §4

SMILES	Monochoria vaginalis herbicidal efficacy (growth inhibition level) ([1]; 1g a.i./10a)	Monochoria vaginalis herbicidal efficacy (growth inhibition level) ([1]; 5g a.i./10a)	Echinochloa crus-galli herbicidal efficacy (growth inhibition level) ([2]; 1g a.i./10a)	Echinochloa crus-galli herbicidal efficacy (growth inhibition level) ([2]; 5g a.i./10a)	Scirpus juncoides herbicidal efficacy (growth inhibition level) ([3]; 1g a.i./10a)	Scirpus juncoides herbicidal efficacy (growth inhibition level) ([3]; 5g a.i./10a)
C=CCCN(C(=O)C(F)(F)F)c1c(C#N)cnn1-c1nn2c(c1Br)CCCC2 [Compound 50]	7 (7: 70% to less than 80%)	9 (9: 90% to less than 100%)	9 (9: 90% to less than 100%)	10 (10: 100%)	7 (7: 70% to less than 80%)	8 (8: 80% to less than 90%)
CC=CCNc1c([N+](=O)[O-])cnn1-c1nn2c(c1Br)CCCC2 (mixture of isomers) [Compound 57]	8 (8: 80% to less than 90%)	9 (9: 90% to less than 100%)	9 (9: 90% to less than 100%)	10 (10: 100%)	7 (7: 70% to less than 80%)	8 (8: 80% to less than 90%)
C=CCN(C(=O)C(F)(F)F)c1c(C#N)cnn1-c1nn2c(c1Br)CCCC2 [Compound 49]	7 (7: 70% to less than 80%)	9 (9: 90% to less than 100%)	8 (8: 80% to less than 90%)	9 (9: 90% to less than 100%)	8 (8: 80% to less than 90%)	9 (9: 90% to less than 100%)
N#Cc1cnn(-c2nn3c(c2Cl)CCCC3)c1N(CCC(F)=C(F)F)C(=O)C(F)(F)F [Compound 20]	8 (8: 80% to less than 90%)	9 (9: 90% to less than 100%)	9 (9: 90% to less than 100%)	9 (9: 90% to less than 100%)	8 (8: 80% to less than 90%)	8 (8: 80% to less than 90%)
N#Cc1cnn(-c2nn3c(c2Br)CCCC3)c1N(C/C=C\Cl)C(=O)C(F)(F)F [Compound 53]	7 (7: 70% to less than 80%)	8 (8: 80% to less than 90%)	9 (9: 90% to less than 100%)	10 (10: 100%)	7 (7: 70% to less than 80%)	8 (8: 80% to less than 90%)
C=C(C)CNc1c([N+](=O)[O-])cnn1-c1nn2c(c1Cl)CCCC2 [Compound 31]	9 (9: 90% to less than 100%)	9 (9: 90% to less than 100%)	9 (9: 90% to less than 100%)	9 (9: 90% to less than 100%)	7 (7: 70% to less than 80%)	8 (8: 80% to less than 90%)
N#Cc1cnn(-c2nn3c(c2Cl)CCCC3)c1N(CC(Cl)=CCl)C(=O)C(F)(F)F (mixture of isomers) [Compound 23]	8 (8: 80% to less than 90%)	9 (9: 90% to less than 100%)	8 (8: 80% to less than 90%)	9 (9: 90% to less than 100%)	7 (7: 70% to less than 80%)	8 (8: 80% to less than 90%)
